Experimental data published in patent publication US9901579B2, “Compositions comprising phosphodiesterase inhibitors for use in the treatment of a solid tumor in a human patient” (Sartar Therapeutics Ltd, priority 2013, dated 2018).
Counter-ions that a name gives are not always drawn.

Columns and labels:
Type in all cases: cell-based, human
[1] = system: GIST cell cultures (GIST48 and GIST882); test: xCELLigence System / RTCA DP proliferation analysis; conditions: 10 μmol/L or higher concentration
From the text: Four different PDE3-inhibitors were used to block the activity of PDE3 enzymes and two kinase-inhibitors to block the activity of KIT and PDGFRA. Cilostazol, milrinone and amrinone were purchased from Sigma (St Louis, Mo., USA) and anagrelide hydrochloride was purchased from Tocris Bioscience (Bristol, UK). […] All other inhibitors were reconstituted in DMSO. In a preliminary analysis, multiple drug concentrations (from 0 to 100 μmol/L) were used to identify effective PDE3 inhibitor doses in the GIST cell lines. Effects on proliferation were analysed using xCELLigence System and the RTCA DP instrument (Acea Biosciences, San Diego, Calif., USA). […] Cell progression to apoptosis after anagrelide hydrochloride treatment was analysed in eight duplicate wells with a Click-iT TUNEL Alexa Fluor 488 Imaging Assay (Invitrogen, Carlsbad, Calif., USA) according to the manufacturer's instructions. Progression to apoptosis was measured after 48 hours and after 96 hours of drug treatments. Cell proliferation was examined by the MTT assay (Roche Diagnostics, Indianapolis, Ind., USA) and the xCELLigence System using the RTCA DP instrument (Acea Biosciences). […] At the end of the incubation, cell proliferation was analyzed from eight duplicate wells by adding 10 μL of the MTT reagent into each well and incubating at 37° C. for four hour. The plates were read with a Multiscan EX Microplate photometer (Thermo Scientific, Rockford, Ill., USA) at the wavelength of 540 nm. For the xCELLigence proliferation assay GIST48 and GIST882 cells were plated at a density of 2.5×10^4 cells/well. Before plating GIST882 cells, the wells were thin coated with Collagen I Rat Tail (Invitrogen, Carlsbad, Calif., USA) according to the manufacturer's instructions using 7.5 μg/mL final collagen concentration.

[2] = system: GIST882 cells; test: MTT cell proliferation assay, GIST882; conditions: 10 μmol/L, 96 hours (four day culture)
Method: (§1) GIST882 is a primary human GIST cell line with a homozygous missense mutation in KIT exon 13, encoding a […] mutant KIT oncoprotein (Tuveson, D. A. 2001). […] GIST48 has a primary exon 11 missense mutation and a secondary exon 17 missense mutation (Bauer, S. 2006). LPS141 is a liposarcoma cell line that is established from patient derived de-differentiated liposarcoma (Snyder, E. L. 2009). The cell lines were cultured in a RPMI 1640 medium (GIBCO, California USA) supplemented with 20% fetal bovine serum (FBS) and 2% penicillin/streptomycin. Four different PDE3-inhibitors were used to block the activity of PDE3 enzymes and two kinase-inhibitors to block the activity of KIT and PDGFRA. […] Effects on proliferation were analysed using xCELLigence System and the RTCA DP instrument (Acea Biosciences, San Diego, Calif., USA). […] Cell progression to apoptosis after anagrelide hydrochloride treatment was analysed in eight duplicate wells with a Click-iT TUNEL Alexa Fluor 488 Imaging Assay (Invitrogen, Carlsbad, Calif., USA) according to the manufacturer's instructions. Progression to apoptosis was measured after 48 hours and after 96 hours of drug treatments. […] At the end of the incubation, cell proliferation was analyzed from eight duplicate wells by adding 10 μL of the MTT reagent into each well and incubating at 37° C. for four hour. […]

[3] = system: LPS141 liposarcoma cell line; test: MTT cell proliferation assay, LPS141; conditions: 10 μmol/L, 96 hours (four day culture)
Method: as §1

[4] = system: GIST882 cells; test: Click-iT TUNEL apoptosis assay, GIST882; conditions: anagrelide hydrochloride 10 μmol/L, imatinib 0.5 μmol/L
Method: (§2) GIST882 is a primary human GIST cell line with a homozygous missense mutation in KIT exon 13, encoding a […] mutant KIT oncoprotein (Tuveson, D. A. 2001). […] GIST48 has a primary exon 11 missense mutation and a secondary exon 17 missense mutation (Bauer, S. 2006). LPS141 is a liposarcoma cell line that is established from patient derived de-differentiated liposarcoma (Snyder, E. L. 2009). The cell lines were cultured in a RPMI 1640 medium (GIBCO, California USA) supplemented with 20% fetal bovine serum (FBS) and 2% penicillin/streptomycin. Four different PDE3-inhibitors were used to block the activity of PDE3 enzymes and two kinase-inhibitors to block the activity of KIT and PDGFRA. Cilostazol, milrinone and amrinone were purchased from Sigma (St Louis, Mo., USA) and anagrelide hydrochloride was purchased from Tocris Bioscience (Bristol, UK). […] All other inhibitors were reconstituted in DMSO. […] Effects on proliferation were analysed using xCELLigence System and the RTCA DP instrument (Acea Biosciences, San Diego, Calif., USA). […] Cell progression to apoptosis after anagrelide hydrochloride treatment was analysed in eight duplicate wells with a Click-iT TUNEL Alexa Fluor 488 Imaging Assay (Invitrogen, Carlsbad, Calif., USA) according to the manufacturer's instructions. Progression to apoptosis was measured after 48 hours and after 96 hours of drug treatments.

[5] = system: GIST48 cells; test: Click-iT TUNEL apoptosis assay, GIST48; conditions: for apoptotic GIST48 cells: anagrelide hydrochloride 10 μmol/L, imatinib 0.5 μmol/L
Method: as §2

Nc1cc(-c2ccncc2)c[nH]c1=O [amrinone]
anti-proliferative effect on GIST cell cultures [1]: some anti-proliferative effect

O=C1CN2Cc3c(ccc(Cl)c3Cl)N=C2N1 [anagrelide hydrochloride, 6,7-dichloro-1,5-dihydroimidazo[2,1-b]quinazolin-2(3H)-one]
anti-proliferative effect on GIST cell cultures [1]: some anti-proliferative effect | effect on GIST882 cell growth in comparison with DMSO [2]: the only PDE3 inhibitor that had an effect | effect on LPS141 cell growth in comparison with DMSO [3]: the only PDE3 inhibitor that had an effect | apoptotic GIST882 cells ([4]; after 48 hours): 22% | apoptotic GIST882 cells ([4]; after 96 hours): 47% | apoptotic GIST48 cells ([5]; after 48 hours): 0.6% | apoptotic GIST48 cells ([5]; after 96 hours): 1% | DNA fragmentation in GIST48 cells ([5]; anagrelide hydrochloride treatment): only slight DNA fragmentation

O=C1CCc2cc(OCCCCc3nnnn3C3CCCCC3)ccc2N1 [cilostazol]
anti-proliferative effect on GIST cell cultures [1]: did not influence cell proliferation

Cc1[nH]c(=O)c(C#N)cc1-c1ccncc1 [milrinone]
anti-proliferative effect on GIST cell cultures [1]: did not influence cell proliferation
